According to patent US8790898B2 (priority 2008, dated 2014):
“And” between values parts separate entries of the source, which are not always exact repeats. Equal entries are not always repeated. “Also recorded” adds a separate entry of the source. Where two headings read alike, the source gives them in different places.

Legend:
HIV-1 BZ 167 [1] = type: cell-based; settings: listed as CBD1
[2] = system: CBD1 peptide and CBD1- and CBM-based peptides; design: species or system BALB/c mice; settings: mouse, in vivo
HIV-1 BZ 167 [3] = type: cell-based
[4] = system: CBD1 peptide specific IFN-γ spot forming cells; design: species or system cynomolgus macaques (Macaca fascicularis); settings: cynomolgus monkey, in vivo
CBD1 peptide = CBD1 peptide (Human immunodeficiency virus type 1 group M subtype B, UniProt P04578, E630Q/H625N/T626M); settings: rabbits, 150 μg/injection, CFA, ten days after 5th immunization; against CBD1; reciprocal dilution giving OD450 = 0.1
[5] = system: IgG antibodies in human HIV-1 positive sera; type: binding
[6] = system: primary HIV-1 BZ 167 isolate; type: cell-based; settings: rabbit immune serum; dilution resulting 50% inhibition of HIV-1 infection; listed as CBD1
[7] = system: CBD1, C13K, CBD1/A and C10M peptides and the CBD1-KLH Construct; settings: guinea pig, in vivo
[8] = biological target: CBD1, C13K, CBD1/A and C10M peptides and the CBD1-KLH Construct (Human immunodeficiency virus type 1 group M subtype B, UniProt P04578); settings: guinea pig, in vivo
[9] = biological target: CBD1, C13K, CBD1/A and C10M peptides and the CBD1-KLH Construct (Human immunodeficiency virus type 1 group M subtype B, UniProt P04578, E630Q/H625N/T626M); settings: guinea pig, in vivo
[10] = system: CBD1 (C18K) and the Tet peptide; design: species or system cynomolgus macaques (Macaca fascicularis); settings: cynomolgus monkey, in vivo

## C-S-L-E-Q-I-W-N-N-M-T-W-M-Q-W-D-K [C17K]
HIV-1 BZ 167 [1]; 50-fold dilution of guinea pig immune sera (bleeds S5), HIV-1 BZ 167, p24 at 5 days post infection
  Inhibition of HIV-infection: 66% and 57%
HIV-1 BZ 167 [1]; 100 fold dilution of guinea pig immune serum (bleeds S5), HIV-1 BZ 162, human CD4+ T lymphocytes
  Inhibition of HIV infection: 66% and 57%
HIV-1 BZ 167 [1]; guinea pig immune serum, dilution resulting 50% inhibition of HIV-1 infection
  HIV Inhibition (ID50): 50 and <50
[2]
  IgG2/1gG1 ratio: 0.96 and 1.15
  Titer (ELISA): 256,000 and 384,000
[2]; sc
  ELISA C17K: 1.94 ± 0.28
  ELISA K23M: <0.20
  ELISA K24W: <0.20
  ELISA K27M: 2.91 ± 0.26
  ELISA K27W: <0.20
  ELISA K27W(G): <0.20
  ELISA K30W(G): <0.20
  ELISA against the Immunogen (OD): 1.22 OD
  ELISA p6362: 1.78 ± 0.22
  ELISA titer against C17K: 1.94 ± 0.45
  IgG2/IgG1 ratio: 1.08
HIV-1 BZ 167 [3]
  % Inhibition of HIV-1 infection at 200-fold dilution: 59%
  % inhibition of HIV-1 at 200-fold dilution: 75%
  HIV Inhibition (ID50): 250 and 300
  Neutralizing activity ID50: 250-fold
  Neutralizing activity ID50 Fold-Dilution: 300-fold
[4]
  immunized animals in each group that developed a significant level of T-cell response against the CBD1 epitope: one out of the three
CBD1 peptide
  Titer (ELISA): 768,000 and 640,000
[5]; another cohort of 75 HIV-1-positive individuals
  sera found to be positive in ELISA: two
[5]; listed as CBD1
  titer of anti-CBD1 peptide antibodies: 6,400 and 12,800
[6]
  HIV Inhibition (ID50): 250 and 200
[7]
  ELISA C13K (titer): 128,000
  ELISA CBD1/A (titer): 12,000 and 16,000
  ELISA KLH (titer against the CBD1-KLH construct): <200
  IgG2/1gG1 ratio: 4.10 and 3.75
[8]
  ELISA C10M (titer): 12,000
[9]
  ELISA CBD1 (titer): 128,000
  Titer (ELISA): 128,000 and 96,000
[10]
  macaques that developed high antibody titers: two out of the three; also recorded: one out of the three
